Marks after values point to notes of the source that are not given here.
Tests used:
[1] = tested on: B10-mdx mice; test: Circulating lymphocytes and neutrophils (CBC) after 2 weeks (Study 1); format: in vivo, mouse
Description: It is understood that part of the efficacy of corticosteroids is via their impact on leukocyte trafficking, resulting in a decrease in lymphocyte and an increase in neutrophil counts in the blood within hours of drug administration. Corticostetoids regulate leukocyte trafficking via changes in adhesion molecules and cytokines, which likely reflects inhibition of NF-κB [39, 40]. The effect of the three corticosteroids on leukocyte trafficking was assessed in B10-mdx mice after 2 weeks of dosing (Study 1). No significant differences in neutrophil-to-lymphocyte ratio were seen between wildtype and B10-mdx mice (Fig. 6a).
Study 1: The goal of this study was to define the dose-response of each of the three corticosteroids. […] On Day 11, mice were fasted for 6 h and then blood was obtained to measure blood glucose. Blood glucose was measured using a glucometer (ACCU-CHECK) by tail bleeding. At the end of 14 days, mice were euthanized, and blood samples were evaluated for complete blood count (CBC) and plasma were collected for analysis of corticosterone levels, osteocalcin, creatine kinase, and cytokines. Brain, muscle, and liver were collected for RNAseq. The number of animals per group was as follows: WT, n = 15; B10-mdx, n = 11; corticosteroid-treated groups, n = 10–12.

[2] = tested on: STAT1; test: GRE-mediated STAT1 in cultured BMDM; format: cell-based, mouse; conditions: for EC50: Mus musculus, BMDM, corticosteroid overnight, LPS 10 ng/ml 3 h; for STAT1/IFN-γ Ratio: ratio of EC50 values
Source text: The immunosuppressive activity of corticosteroids is in part due to their inhibition of NF-κB-induced cytokines including TNF-α, IL-6, and IL-12. Furthermore, expression of some inflammatory-mediated proteins such as STAT1 is mediated via GREs, and not the NF-κB pathway. We therefore expanded murine bone marrow-derived macrophages (BMDM) in vitro, and after 5 days of culture tested the relative efficacy of different corticosteroids to prevent LPS-induced cytokine secretion.
BMDM mouse bone marrow derived macrophage (mBMDM) cultures were generated from the femur and tibia from two 7–11-week-old C57BL/6 mice. Briefly, bone marrow cells were carefully flushed out, suspended in ice-cold PBS, and spun down. After the supernatant was removed, the pelleted cells were resuspended in 2 ml (ammonium-Chloride-Potassium) ACK lysis buffer (Thermo Fisher, Cat# A1049201) and incubated for 3–4 min, followed by 14 ml ice-cold PBS, and then spun down. The pelleted cells were resuspended in 43 ml complete media [Roswell Park Memorial Institute (RPMI 1640), Gibco, Cat# 11875-093; 10% heat-inactivated fetal bovine serum (HiFBS), HyClone, Cat# SH30406.02; 1% 2 mM L-glutamine; 1% penicillin-streptomycin, Sigma, Cat# P4333-100ML; 1% MEM NEAA, Gibco, Cat# 11140-050; 1% Na Pyruvate, Gibco, Cat# 11360-070; 55 μM 2-Mercaptoethanol, Gibco, Cat#21985-023]. A total of 25 ng/ml M-CSF was added to the culture. Cells were dispensed as 200 μl per well into a 96-well tissue culture plate and incubated at 37°C, 5% CO2 for 4 days. On Day 5, media were removed and 100 μl fresh complete media containing M-CSF were added. Corticosteroids were added and cells incubated at 37°C and 5% CO2 overnight. Untreated cells were incubated with media. On Day 6, 10 ng/ml of lipopolysaccharide (LPS) was added and incubated at 37°C and 5% CO2 for 3 h followed by removal of cell media for cytokine analysis. Cytokines were measured using a Meso Scale Discovery (MSD), V-PLEX kit (V-PLEX Cat# K-15048D, www.mesoscale.com).

[3] = tested on: B10-mdx mice; test: Tail-suspension test 24 h after force-swim test (Study 2); format: in vivo, mouse; conditions: daily dosing 4 weeks, vs vehicle B10-mdx
Description: Corticosteroid-treated mice were subjected to the force-swim test (FST) followed by the tail-suspension test (TST) 24 h later. During the TST, normal mice will struggle and constantly move. However, mice show depression-like behavior by quickly giving up, stop moving, and remaining still for a greater percentage of the time.
Study 2: The goal of the second study was to evaluate corticosteroid side effects and efficacy in a longer study (4 months). After 28 days of dosing, mice were tested for depression-like behavior using a measure of corticosteroid-induced depression (FST followed by TST). Muscle function was tested via grip strength. Tests for depression and for grip-strength were done in a blinded manner. After 4 months, mice were euthanized, and tissues were collected. Bone from whole left leg was collected for micro-CT analysis. The number of animals per group was as follows: WT, n = 16; B10-mdx, n = 15; corticosteroid-treated groups, n = 8–10.
• 1) Force-swim test: Animals were single housed and acclimated in the behavior room for 30 min prior to test. A clean 1-L beaker was filled with 700 to 800 ml of 23°C water. Each mouse was placed into the water for 6 min. The total immobility time was recorded. After the test, the animals were dried and placed in a cage on a heating pad for about 10 min before returning to the home cages. • 2) Tail-suspension test: Isolated mice were suspended 50 cm above the floor by surgical tape placed approximately 1 cm from the tip of the tail for 6 min. The total immobility time of mice was measured. Mice were considered immobile only when they hung passively and completely motionless.

[4] = tested on: P-gp (MDR1); test: MDR1-MDCK permeability / P-gp efflux assay; conditions: MDCK-MDR1, pH 7.4
Description: To measure transport by P-gp, Madin-Darby canine kidney (MDCK) cells that had been transfected with the human P-gp (MDR1) gene were plated in a Transwell plate and cultured until polarized. MDCK cells that are not transfected with human P-gp were used as a control. Compounds were added to either the apical or the basolateral side of the cells, and transport across the membrane was measured.
Testing for permeability and MDR1 substrate assessment was done in MDCK cells transfected to overexpress human MDR1 gene that encodes efflux transporter protein (P-gp). […] Briefly, cells were maintained in Dulbecco’s modified Eagle medium (DMEM) with 10% fetal bovine serum and 1% penicillin/streptomycin in a humidified incubator at 37°C with 5% CO2. The study was performed by Absorption Systems (now Pharmaron; Exton, PA). The MDR1-MDCK and MDCK control cell lines were seeded into 12-well plates for 7 days. Integrity of monolayer tight junctions was monitored preincubation by transepithelial electrical resistance (TEER) measurement. […] The samples were withdrawn at t = 0 and 60 min from the receiver and donor compartments. Compound levels were measured by LC/MS–MS. Additionally, post-assay, cell monolayer integrity was checked with Lucifer Yellow permeability measurement. Transport assay low- and high-permeability control compounds were run in parallel for assay validation. Papp values were calculated considering compound concentrations across the monolayer and cell surface area. Efflux ratios were calculated based on Papp B > A over Papp A > B. The difference between the MDR1-MDCK and the MDCK cell efflux ratios was also calculated. […] Compounds were classified by Absorption Systems/Pharmaron as follows: […]

[5] = doses tested (deflazacort 1.25-15 mg/kg; vamorolone all doses 15, 30, 45 mg/kg)

| EC50 [2] [nM] | Papp at 60 min [4] [×10⁻⁶ cm/s] | efflux ratio at 60 min, 1 μM [4] | efflux ratio at 60 min, 10 μM [4] | Compound | % decrease in fraction of lymphocytes at Day 14 from mdx vehicle ([1]; 5 mg/kg PO daily) | % increase in fraction of PMNs at Day 14 ([1]; 5 mg/kg PO daily) | % decrease in fraction of lymphocytes at Day 14 from mdx vehicle ([1]; 15 mg/kg PO daily) | % increase in fraction of PMNs at Day 14 ([1]; 15 mg/kg PO daily) | STAT1/IFN-γ Ratio [2] [×] | immobilization time in tail suspension test [3, 5] | further results |
| --- | --- | --- | --- | --- | --- | --- | --- | --- | --- | --- | --- |
| 9.4 | – | – | – | C[C@]12C=CC(=O)C=C1CC[C@@H]1[C@@H]2[C@@H](O)C[C@@]2(C)[C@H]1CC[C@]2(O)C(=O)CO [Prednisolone] | 21%*** | 92%**** | – | – | – | – | % decrease in fraction of lymphocytes at Day 14 from mdx vehicle ([1]; 1.2 mg/kg PO daily): 17%**; % increase in fraction of PMNs at Day 14 ([1]; 1.2 mg/kg PO daily): 64%**; % decrease in fraction of lymphocytes at Day 14 from mdx vehicle ([1]; 2.4 mg/kg PO daily): 18%**; % increase in fraction of PMNs at Day 14 ([1]; 2.4 mg/kg PO daily): 81%***; immobilization time in tail suspension test ([3]; high dose (5 mg/kg)): increased the immobilization time significantly |
| 7.6 | > 3 | 6.84 | 6.42 | C[C@@H]1C[C@H]2[C@@H]3CCC4=CC(=O)C=C[C@]4(C)C3=CC[C@]2(C)[C@@]1(O)C(=O)CO [Vamorolone] | – | – | (0.5%) | 7% | 10 | increased the immobilization time significantly | % decrease in fraction of lymphocytes at Day 14 from mdx vehicle ([1]; 30 mg/kg PO daily): 5%; % increase in fraction of PMNs at Day 14 ([1]; 30 mg/kg PO daily): 27%; % decrease in fraction of lymphocytes at Day 14 from mdx vehicle ([1]; 45 mg/kg PO daily): 14%**; % increase in fraction of PMNs at Day 14 ([1]; 45 mg/kg PO daily): 70%** |
| 3.1 | < 3 | 60.2 | 58.4 | CC(=O)OCC(=O)[C@@]12N=C(C)O[C@@H]1C[C@H]1[C@@H]3CCC4=CC(=O)C=C[C@]4(C)[C@H]3[C@@H](O)C[C@@]12C [Deflazacort] | 9%* | 41%* | 19%**** | 82%**** | 11 | did not increase | % decrease in fraction of lymphocytes at Day 14 from mdx vehicle ([1]; 1.25 mg/kg PO daily): (1%); % increase in fraction of PMNs at Day 14 ([1]; 1.25 mg/kg PO daily): 3%; % decrease in fraction of lymphocytes at Day 14 from mdx vehicle ([1]; 2.5 mg/kg PO daily): 5%; % increase in fraction of PMNs at Day 14 ([1]; 2.5 mg/kg PO daily): 32%* |

From article PMC10800023 (Human Molecular Genetics, 2023)
